Test results published in patent publication US20230278972A1, “SUBSTITUTED HALOALKYL SULFONANILIDE HERBICIDES” (FMC Corporation, priority 2020, published 2023).

Columns and labels:
Assay type in all cases: in vivo
[1] = tested on: ragweed (common ragweed, Ambrosia artemisiifolia); assay: Test A1 preemergence, ragweed
Summary of the method: (§1)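 Seeds were first planted into a blend of loam soil and sand and given a preemergence directed soil spray. In parallel, pots of the same soil were sown for postemergence application once plants reached 2 to 10 cm and the one- to two-leaf stage. Both used surfactant-containing non-phytotoxic solvent formulations.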

[2] = tested on: blackgrass (Alopecurus myosuroides); assay: Test A1 postemergence, blackgrass; details: Postemergence, 0 to 100 scale (0 no effect, 100 complete control)
Summary of the method: (§2)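 Plants grown in pots of loam/sand mix; preemergence = soil-directed spray on seeded pots, postemergence = spray at 1–2 leaves, height 2–10 cm; test chemicals formulated in non-phytotoxic solvent with surfactant.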

[3] = tested on: wheat (Triticum aestivum); assay: Test A1 preemergence, wheat
Summary of the method: as §1

[4] = tested on: barnyardgrass (Echinochloa crus-galli); assay: Test B1 flooded paddy test, barnyardgrass; details: 250 g ai/ha, Flood, applied to paddy water, 2-leaf stage, visually evaluated after 10 to 14 days
Text: A dash (-) response means no test result.

[5] = tested on: Pigweed, Palmer (palmer amaranth, palmer pigweed, Amaranthus palmeri); assay: Test A1 postemergence, Pigweed, Palmer; details: Postemergence
Summary of the method: (§3)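 Plants were grown in a loam soil/sand blend, with test chemicals formulated in a non-phytotoxic solvent mixture containing surfactant. Preemergence treatment (corn) was a directed soil spray at planting. Postemergence treatment was applied to plants 2 to 10 cm tall at the one- to two-leaf stage.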

[6] = tested on: Oat, Wild (wild oat, Avena fatua); assay: Test A1 postemergence, Oat, Wild; details: Postemergence
Summary of the method: as §3

[7] = tested on: goosegrass (Eleusine indica); assay: Test A1 postemergence, goosegrass; details: Postemergence
Summary of the method: as §2

[8] = tested on: Foxtail, Giant (giant foxtail, Setaria faberi); assay: Test A1 postemergence, Foxtail, Giant; details: Postemergence
Summary of the method: as §2

[9] = 31 g ai/ha, 0 to 100 scale (0 no effect, 100 complete control)
[10] = 125 g ai/ha, 0 to 100 scale, 0 no effect, 100 complete control
[11] = 31 g ai/ha, 0 to 100 scale (0 no effect, 100 complete control), 10 days

Row | SMILES | Plant response rating, Ragweed [1, 9] | Plant response rating, Ragweed [1, 10] | Plant response rating, Blackgrass ([2]; 31 g ai/ha, 10 days) | Plant response rating, Blackgrass ([2]; 125 g ai/ha) | Plant response rating, Wheat [3, 9] | Plant response rating, Wheat [3, 10] | Plant response rating, Barnyardgrass (0 to 100 scale, 0 is no effect, 100 is complete control) [4] | Plant response rating, Pigweed, Palmer [5, 11] | Plant response rating, Pigweed, Palmer ([5]; 125 g ai/ha, 0 to 100 scale) | Plant response rating, Oat, Wild [6, 11] | Plant response rating, Oat, Wild ([6]; 125 g ai/ha, 0 to 100 scale) | Plant response rating, Goosegrass [7, 11] | Plant response rating, Goosegrass ([7]; 125 g ai/ha, 0 to 100 scale) | Plant response rating, Foxtail, Giant [8, 11] | Plant response rating, Foxtail, Giant ([8]; 125 g ai/ha, 0 to 100 scale)
1 | Cc1c(NS(=O)(=O)C(F)(F)F)cc(C(=O)N2CCCCC2)c(C)c1C [Compound 326] | 90 | 90 | 0 | 0 | 0 | 50 | 0 | 40 | 80 | 0 | 0 | 0 | 80 | 10 | 30
2 | Cc1c(NS(=O)(=O)C(F)(F)F)cc(C(=O)N2CC(C)OC(C)C2)c(C)c1C (stereo not drawn) [Compound 327] | 90 | 90 | 0 | 0 | 0 | 30 | 30 | 30 | 50 | 0 | 0 | 20 | 70 | 30 | 90
3 | Cc1c(NS(=O)(=O)C(F)(F)F)cc(C(=O)N2CC(C)OC(C)C2)c(C)c1C (stereo not drawn) [Compound 328] | 10 | 80 | 0 | 0 | 0 | 30 | 40 | 30 | 40 | 0 | 0 | 20 | 80 | 0 | 70
4 | Cc1c(C(=O)N2CCCCC2)cc(N(COC(=O)C(C)(C)C)S(=O)(=O)C(F)(F)F)c(C)c1C [Compound 329, [[(Trifluoromethyl)sulfonyl][2,3,4-trimethyl-5-(1-piperidinylcarbonyl)phenyl]amino]methyl 2,2-dimethylpropanoate] | 60 | 70 | 0 | 30 | 0 | 0 | 95 | 10 | 10 | 0 | 0 | 0 | 30 | 10 | 70
5 | Cc1c(C(=O)N2C[C@@H](C)O[C@@H](C)C2)cc(N(COC(=O)C(C)(C)C)S(=O)(=O)C(F)(F)F)c(C)c1C [Compound 331] | 0 | 90 | 0 | 50 | 0 | 0 | 98 | 0 | 20 | 0 | 20 | 0 | 50 | 20 | 80
6 | CCOC(=O)N(c1cc(C(=O)N2C[C@@H](C)O[C@@H](C)C2)c(C)c(C)c1C)S(=O)(=O)C(F)(F)F [Compound 332] | 50 | 80 | 0 | 90 | 10 | 40 | 98 | 10 | 30 | 0 | 30 | 0 | 90 | 30 | 90
7 | Cc1c(C(=O)N2CCCCC2)cc(NS(=O)(=O)C(F)(F)F)c(Cl)c1F [Compound 333] | 0 | 70 | 0 | 30 | 0 | 50 | 0 | 40 | 60 | 0 | 10 | 0 | 30 | 10 | 30
8 | Cc1c(NS(=O)(=O)C(F)(F)F)cc(C2=NOC3CCCC23)c(C)c1C (stereo not drawn) [Compound 335] | 20 | 90 | 0 | 10 | 0 | 0 | 95 | 20 | 30 | 0 | 0 | 0 | 10 | 0 | 0
9 | Cc1c(C2=NO[C@@H]3CCC[C@H]23)cc(N(COC(=O)C(C)(C)C)S(=O)(=O)C(F)(F)F)c(C)c1C [Compound 336, [[(Trifluoromethyl)sulfonyl][2,3,4-trimethyl-5-[(3aR,6aR)-3a,5,6,6a-tetrahydro-4H-cyclopent[d]isoxazol-3-yl]phenyl]amino]methyl 2,2-dimethylpropanoate] | 0 | 50 | 0 | 0 | 0 | 0 | 95 | 20 | 50 | 0 | 0 | 0 | 0 | 0 | 40
10 | C#CCN(C)C(=O)c1cc(NS(=O)(=O)C(F)(F)F)c(Cl)c(F)c1C [Compound 337] | 70 | 90 | 0 | 30 | 10 | 60 | 0 | 30 | 50 | 0 | 20 | 0 | 90 | 0 | 90
11 | COCC1CC(c2cc(N(COC(=O)C(C)(C)C)S(=O)(=O)C(F)(F)F)c(C)cc2C)=NO1 (stereo not drawn) [Compound 338] | 0 | 40 | 0 | 0 | 0 | 80 | 95 | 0 | 30 | 0 | 10 | 0 | 70 | 10 | 80
12 | CCOC1CC(c2cc(N(COC(=O)C(C)(C)C)S(=O)(=O)C(F)(F)F)c(C)cc2C)=NO1 (stereo not drawn) [Compound 339] | 20 | 50 | 0 | 30 | 0 | 0 | 95 | 0 | 20 | 0 | 0 | 0 | 30 | 0 | 50
13 | CCC1ON=C(c2cc(NS(=O)(=O)C(F)(F)F)c(C)cc2C)C1CC (stereo not drawn) [Compound 343] | 10 | 60 | 10 | 30 | 10 | 90 | 85 | 0 | 60 | 0 | 50 | 40 | 90 | 0 | 30
14 | CCC1ON=C(c2cc(N(COC(=O)C(C)(C)C)S(=O)(=O)C(F)(F)F)c(C)cc2C)C1CC (stereo not drawn) [Compound 344] | 0 | 0 | 0 | 50 | 0 | 0 | 95 | 20 | 50 | 20 | 30 | 0 | 30 | 10 | 30
